The source of these data is ChEMBL document CHEMBL1148043, “Alectosarmentin, a new antimicrobial dibenzofuranoid lactol from the lichen, Alectoria sarmentosa” (1994).

Activity calls are given as the source filed them. The rule behind the calls is not given here.

Assay [1] concerns Candida albicans. Put plainly: Antimicrobial activity against Candida albicans ATCC 10231 by agar-dilution streak method. Type of assay: functional.
Assay [2] has as its system Pseudomonas aeruginosa. Put plainly: Antimicrobial activity against Pseudomonas aeruginosa ATCC 27853 at 100 ug/ml by agar-dilution streak method. Type of assay: functional, organism-based.
The test system of assay [3] is Mycolicibacterium smegmatis. Put plainly: Antimicrobial activity against Mycobacterium smegmatis ATCC 607 by agar-dilution streak method. Type of assay: functional.
Assay [4] has as its system Staphylococcus aureus. Put plainly: Antimicrobial activity against Staphylococcus aureus ATCC 13709 by agar-dilution streak method. Type of assay: functional.
Assay [5] has as its system Escherichia coli. Put plainly: Antimicrobial activity against Escherichia coli ATCC 9637 at 100 ug/ml by agar-dilution streak method. Type of assay: functional, organism-based.
The subject of assay [6] is Salmonella enterica subsp. enterica serovar Gallinarum. Put plainly: Antimicrobial activity against Salmonella gallinarum ATCC 9184 at 100 ug/ml by agar-dilution streak method. The class given is functional, organism-based.
Assay [7] deals with Klebsiella pneumoniae. Put plainly: Antimicrobial activity against Klebsiella pneumoniae ATCC 10031 at 100 ug/ml by agar-dilution streak method. The class given is functional, organism-based.
Assay [8] deals with Candida albicans. Put plainly: Antimicrobial activity against Candida albicans ATCC 10231 at 100 ug/ml by agar-dilution streak method. Type of assay: functional, organism-based.
Assay [9] has as its system Klebsiella pneumoniae. Put plainly: Antimicrobial activity against Klebsiella pneumoniae ATCC 10031 by agar-dilution streak method. The class given is functional.
Assay [10] has as its system Escherichia coli. Put plainly: Antimicrobial activity against Escherichia coli ATCC 9637 by agar-dilution streak method. Type of assay: functional.
Assay [11] has as its system Salmonella enterica subsp. enterica serovar Gallinarum. Put plainly: Antimicrobial activity against Salmonella gallinarum ATCC 9184 by agar-dilution streak method. The class given is functional.

Turning to `CCCCCc1cc2cc(O)cc(Oc3c(O)cc(O)c4c3CC(CCCCC)(OCC)OC4=O)c2c(=O)o1` (stereo not given), the Activity stood at 100 µg/mL in [1], 50 µg/mL in assay [3] and 50 µg/mL in assay [4]. For the same molecule, the outcome in assay [2], in [5], in assay [6] and in assay [7] was inactive.

Regarding `CC(=O)C1=C(O)C=C2Oc3c(C(C)=O)c(O)c(C)c(O)c3[C@]2(C)C1=O` [(-)-USNIC ACID], the Activity in assay [1] is 50 µg/mL; in assay [3], 6.25 µg/mL; in assay [4], 25 µg/mL. In addition, the outcome in assay [2], in [5], in assay [6] and in assay [7] was inactive.

As to `Cc1cc(O)cc2oc3cc(O)c4c(c3c12)C(O)OC4=O` (stereo not given) [ALECTOSARMENTIN], the outcome in assay [2], in [5], in assay [8], in [6] and in [7] was inactive. The Activity in [3] and in [4] was 25 µg/mL each time.

Turning to `CCCCCC(=O)Cc1cc(O)cc2c1C(=O)Oc1cc(O)c(C(=O)O)c(CCCCC)c1O2` [PHYSODIC ACID], the outcome in assay [2], in assay [5], in [8], in [6] and in assay [7] was inactive. Also, the Activity in assay [3] is 100 µg/mL; in [4], 25 µg/mL.

Take `CN[C@@H]1[C@H](O[C@H]2[C@H](O[C@H]3[C@H](O)[C@@H](O)[C@H](N=C(N)N)[C@@H](O)[C@@H]3N=C(N)N)O[C@@H](C)[C@]2(O)C=O)O[C@@H](CO)[C@H](O)[C@H]1O.CN[C@@H]1[C@H](O[C@H]2[C@H](O[C@H]3[C@H](O)[C@@H](O)[C@H](N=C(N)N)[C@@H](O)[C@@H]3N=C(N)N)O[C@@H](C)[C@]2(O)C=O)O[C@@H](CO)[C@H](O)[C@H]1O.O=S(=O)(O)O.O=S(=O)(O)O.O=S(=O)(O)O` [STREPTOMYCIN SULFATE]: the Activity turned out to be 2.5 µg/mL in [9]; 5 µg/mL in assay [10]; 1.25 µg/mL in [3]; 50 µg/mL in [11]; 5 µg/mL in [4]. For the same molecule, the outcome in assay [2] and in [8] was inactive.
